Laboratory results taken from patent publication US6671540B1, “Methods and systems for detecting abnormal tissue using spectroscopic techniques” (priority 1990, dated 2003).

Tests used:
hippocampal slice = assay: Stimulation-evoked afterdischarge activity in hippocampal slice (field recording and intrinsic optical signal); assay type: cell-based, rat
Method: Sprague-Dawley rats (male and female; 25 to 35 days old) were prepared as described in Aghajanian, A. K. and Rasmussen, K., Synapse 31:331, 1989; and Buckmaster, P. S., Strowbridge, B. W., Schwartzdroin, P. A., J. Neurophysiol. 70:1281, 1993. In most hippocampal slice experiments, simultaneous extracellular field electrode recordings were obtained from CA1 and CA3 areas. For stimulation-evoked afterdischarge (13 slices, 8 animals), the concentration of Mg^2+ in the bathing medium was reduced to 0.9 mM. A bipolar tungsten stimulating electrode was placed on the Schaffer collaterals to evoke synaptically driven field responses in CA1; stimuli consisted to 100 to 300-μs-duration pulses at an intensity of four times population-spike threshold. Afterdischarges were evoked by a 2-s train of such stimuli delivered at 60 Hz. […] In all treatments, perfusion with furosemide-containing medium was begun after a consistent level of bursting had been established.
For imaging of intrinsic optical signals, the tissue was illuminated with a beam of white light (tungsten filament light and lens system; Dedotec USA, Lodi, N.J.) directed through the microscope condenser. The light was controlled and regulated (power supply: Lambda Electronics, Melville, N.Y.) to minimize fluctuations and filtered (695 nm long-pass) so that the slice was transilluminated with long wavelengths (red). Image frames were acquired with a charge-coupled device camera (Dage-MTI) at 30 Hz and were digitized at 8 bits with a spatial resolution of 512 by 480 pixels by means of an Imaging Technology Series 151 imaging system; gains and offsets of the camera-control box and the analog-to-digital board were adjusted to optimize the sensitivity of the system. Imaging hardware was controlled by a 486-PC-compatible computer running software written by D. Hochman and developed with commercially available software tools (Microsoft's C/C++ Compiler and Imaging Technology's ITEX library). To increase signal-to-noise ratio, an averaged image was composed from 16 individual image-frames, integrated over 0.5 s and averaged together. An experimental series typically involved the continuous acquisition of a series of averaged images over a several minute time period; at least 10 of these averaged images were acquired as control images before stimulation. Pseudo-colored images were calculated by subtracting the first control image from subsequently acquired images and assigned a color lookup table to the pixel values. For these images, usually a linear low-pass filter was used to remove high-frequency noise and a linear-histogram stretch was used to map the pixel values over the dynamic range of the system. All operations on these images were linear so that quantitative information was preserved.

rat glioma [1] = settings: in vivo
From the text: This example illustrates a series of experiments using a rat glioma model through an intact skull to investigate whether the inventive method and inventive device could function in to image tumor tissue through an intact skull and through intact skin prior to or after surgery. Far red wavelengths of emr are known to penetrate through bone and skin. Imaging of tumor tissue was attempted through the intact skull of the rat. The extent of tumor identified was not as accurate as with the cortex exposed; however, the area lying beneath the skull with tumor tissue was easily identified and localized, and continued to concentrate dye after several minutes. […] One minute after dye injection, the dye had been cleared from the normal brain and the only residual signal remained in tumor tissue and the sagital/traverse sinuses.
FIG. 5A is a gray scale image of the cranial surface of a rat. The sagital suture runs down the center of the image. Tumor cells had been injected into the left side some days earlier so that this animal had developed a glioma on t he left hemisphere of its brain. The right hemisphere was normal. Box 1 lays over the suspect region of brain tumor, and Box 2 lays over normal tissue. FIG. 5B is a difference image one second after indocyanine green dye had been intraveneously injected into the animal. The region containing tumor tissue becomes immediately visible through the intact cranium. […] The concentration of dye in the center of this difference image is dye circulating in the sagital sinus.
The optical changes were determined by the average optical change in a box placed directly over the tumor and over the normal hemisphere. The increase in absorption is a function of the concentration of dye in the tissue at a particular time. The graph labeled “extracranial tumor” is a plot of the dynamics of the absorption changes within box 1 from FIG. 5A. The graph labeled “extracranial: normal” is a plot of the dynamics of the absorption change within box 2 from FIG. 5A.
The following imaging apparatus was employed in Examples 5 and 6. […]

[2] = tested on: low grade CNS tumor (astrocytoma, grade 1); assay: Intraoperative optical imaging of dye uptake and clearance, low grade human CNS tumor; assay type: in vivo; settings: 1 mg/kg iv bolus
From the text: (§1) The procedure used in Examples 1-4 was as follows. The area of interest was evenly illuminated by a fiber optic light source with the radiation passing through a beam splitter, controlled by a D.C. regulated power supply (Lambda, Inc.) and passed through a 695 nm longpass filter. Images were acquired with a CCD camera (COHU 6500) fitted to the operating microscope with a specially modified cineadaptor. The cortex was stabilized with a glass footplate. Images were acquired at 30 Hz and digitized at 8 bits (512×480 pixels, using an Imaging Technology, Inc. Series 151 system, Woburn, Mass.). Geometrical transformations were applied to images to compensate for small amounts of patient motion (Wohlberg, Digital Imaging Warping, IEEE Computer Society: Los Alamitos, Calif., 1988). […] Raw data (i.e., no digital enhancement) were used for determining the average optical change in specified regions (average size box was 30×30 pixels or 150-250 um^2). For pseudocolor images, a linear low pass filter removed high frequency noise and linear histogram transformations were applied. Noise was defined as the standard deviation of fluctuations it! sequentially acquired control images as 0.003-0.009.
An averaged control image was obtained of the particular cortical surface area of interest. FIG. 1A is a gray-scale image of the area of interest prior to dye administration. […]

rat glioma [3] = settings: female, F-344, rat, in vivo
From the text: The rat glioma model is a standard predictive model and was used to delineate dye uptake, clearance and overall parameters of optical imaging that result in the best images. The rat glioma model consistently produces reproducible tumors for imaging studies in which the tumor is resected under an operating microscope. A disadvantage of this model is the more sarcoma-like appearance of the tumor and a lesser degree of vascularity compared to human gliomas.
Briefly, the rat glioma model uses an ethylnitrosourea-induced F-344 rat tumor line developed from a clonal population of a spinal malignant astrocytoma. […] The glioma cells were maintained in Weymouth's medium supplemented with 10% fetal calf serum. Viable cells ([…]) were trypsinized from a monolayer culture and implanted stereotaxically into the right cerebral hemisphere of 30 syngeneic female rats, each weighing 140-160 g. The stereotaxic coordinates for right frontal lobe implantation were 4.5 mm anterior to the frontal zero plane, 3 mm right from the midline and 6 mm deep. The rats were anesthetized for implantation. The heads were shaved and scalps opened, and a 1 mm burr hole made at the appropriate coordinates. The cells were injected through a 27 gauge needle, the needle left in place for 30 sec post injection and the hole was covered with bone wax. The scalp was sutured and the animals observed for 3-4 hrs until they returned to normal activity and feeding. The animals were used 10-14 days after tumor implantation. In this model, animals begin to show clinical symptoms from the tumor by 16-19 days, such as decreased activity and feeding, hemiparesis and eventually succumb between 19-27 days from mass effects due to tumor expansion.
Fourteen animals underwent the complete study, including imaging before and after resection of the tumor. The animals were anesthetized with 2% isoflurane, and the femoral vein cannulated for administration of the dye. Anesthesia was maintained with a—chloralose (50 mg/kg administered ip) and urethane (160 mg/kg administered ip). The animals were placed in a stereotaxic holder. Imaging studies were then carried out before or after removal of the cranium. The tumor typically occupied the anterior one half to two thirds of the right hemisphere exposure. The compressed brain without any tumor infiltration was defined as the tumor surround to separate it from the normal hemisphere on the contralateral side.
The following imaging apparatus was employed in Examples 5 and 6. Light was from a tungsten-halogen bulb regulated by a D.C. power supply, passed through a longpass filter (690 nm), and through a right angled prism reflected through a 50 or 100 mm objective lens onto the cortical surface. […]

[4] = tested on: highly malignant CNS tumor (glioblastoma; astrocytoma, grade IV); assay: Intraoperative optical imaging of dye uptake and clearance, malignant human CNS tumor; assay type: in vivo; settings: iv injection; 1 minute and 10 minutes after dye injection
From the text: as §1
This example illustrates optical detection of a highly malignant CNS tumor (glioblastoma; astrocytoma, grade IV). […]

[5] = 2.5 mM, 20 minutes of perfusion

Structure (SMILES)	electrical afterdischarge activity (hippocampal slice; [5])	stimulation-evoked optical changes (hippocampal slice; [5])	reversibility after washout (hippocampal slice; 45 minutes of perfusion with normal bathing medium)	epileptiform activity and intrinsic optical signal during electrical stimulation (hippocampal slice; following treatment with furosemide)	peak optical change, normal brain (rat glioma [1])	peak optical change, tumor (rat glioma [1])	dye clearance, normal vs tumor region (rat glioma [1]; iv)	entry of dye into low grade tumor tissue vs normal brain tissue [2]	duration of prolonged increase in optical signal in the tumor (rat glioma [3])	dye uptake rise time, normal (rat glioma [3])	onset of optical signal change after dye injection (rat glioma [3])	peak percentage difference change, tumor (rat glioma [3])	retention of dye in malignant tissue [4]
NS(=O)(=O)c1cc(C(=O)O)c(NCc2ccco2)cc1Cl [furosemide]	blocked	blocked	restoration of the initial response pattern	blocks the epileptiform activity and the intrinsic optical signal									
CC1(C)C(/C=C/C=C/C=C/C=C2\N(CCCCS(=O)(=O)O)c3ccc4ccccc4c3C2(C)C)=[N+](CCCCS(=O)(=O)[O-])c2ccc3ccccc3c21 [indocyanine green]					7.8±2.3%	13.1±3.9%	the normal tissue has cleared the dye, but dye is still retained in the tumor region	enters low grade tumor tissue faster than normal brain tissue	> 2 min	2.4 %/sec	2 to 3 s	40.5±9.6%	retained significantly longer in malignant tissue than in benign tumor tissue
